These results are taken from US6956047B1, “Corticotropin releasing factor antagonists” (Pfizer Inc., priority 1995, dated 2005).

Structures can show the parent of a compound that is named as a salt.

In turn, `CCN(C)c1cc(C)nc(Oc2c(C)cc(C)cc2C)c1C` (as salt: HCl) [Example 74, [3,6-Dimethyl-2-(2,4,6-trimethyl-phenoxy)-pyridin-4-yl]-ethyl-methyl-amine] returned a melting point of 173 to 174 °C.

The compound `CCOC(=S)SCc1c(OC(CC)CC)cc(C)nc1Nc1c(C)cc(C)cc1C` [Example 190, Dithiocarbonic acid O-ethyl ester S-[4-(1-ethyl-propoxy)-6-methyl-2-(2,4,6-trimethyl-phenylamino)-pyridin-3-ylmethyl] ester] came in with a melting point of 55 to 57 °C.

On to `CCC(CC)Nc1cc(C)nc2c1nc(N)n2-c1c(C)cc(C)cc1C` [Example 283, N7-(1-Ethyl-propyl)-5-methyl-3-(2,4,6-trimethyl-phenyl)-3H-imidazo[4,5-b]pyridine-2,7-diamine], for which the melting point lay within 158 to 160 °C.

Turning to `CCC(COC)Nc1cc(C)nc(Oc2c(OC)cc(OC)cc2OC)c1[N+](=O)[O-]` (stereo not drawn) [Example 114, (1-Methoxymethyl-propyl)-[6-methyl-3-nitro-2-(2,4,6-trimethoxy-phenoxy)-pyridin-4-yl]-amine], the melting point was in the range of 126.8 to 129.5 °C.

`CCC(CC)Oc1cc(C)nc(Nc2c(C)cc(C)cc2C)c1` [Example 203, [4-(1-Ethyl-propoxy)-6-methyl-pyridin-2-yl]-(2,4,6-trimethyl-phenyl)-amine] came in with a melting point of 98 to 100 °C.

Compound `CCC(CC)Nc1cc(C)nc(Oc2c(C)cc(C)cc2C)c1CN` [Example 248, [3-Aminomethyl-6-methyl-2-(2,4,6-trimethyl-phenoxy)-pyridin-4-yl]-(1-ethyl-propyl)-amine] registered a melting point of 117 to 119 °C.

Turning to `CCC(Nc1cc(C)nc(Oc2c(C)cc(Cl)cc2C)c1CO)C(C)O` (stereo not drawn) [Example 138, 3-[2-(4-Chloro-2,6-dimethyl-phenoxy)-3-hydroxymethyl-6-methyl-pyridin-4-ylamino]-pentan-2-ol], the melting point lay within 180 to 182 °C.

In turn, `CCC(CC)Oc1cc(C)nc(Nc2c(C)cc(C)cc2C)c1C(=O)N(C)C` (as salt: HCl) [Example 193, 4-(1-Ethyl-propoxy)-6,N,N-trimethyl-2-(2,4,6-trimethyl-phenylamino)-nicotinamide] yielded a melting point of 197 to 200 °C.

For `CCC(CC)Oc1cc(C)nc(Nc2c(C)cc(C)cc2C)c1CC(C(=O)OC)C(=O)OC` [Example 185, 2-[4-(1-Ethyl-propoxy)-6-methyl-2-(2,4,6-trimethyl-phenylamino)-pyridin-3-ylmethyl]-malonic acid dimethyl ester], the melting point is 96 to 98 °C.

On to `CCC(CC)Oc1cc(C)nc(Oc2c(C)cc(COC)cc2C)c1C` [Example 67, 4-(1-Ethyl-propoxy)-2-(4-methoxymethyl-2,6-dimethyl-phenoxy)-3,6-dimethyl-pyridine], for which the melting point was in the range of 58 to 60 °C.

Take `CCC(CC)Nc1cc(C)nc(Oc2c(C)cc(C)cc2C)c1NC(C)=O` [Example 98, N-[4-(1-Ethyl-propylamino)-6-methyl-2-(2,4,6-trimethyl-phenoxy)-pyridin-3-yl]-acetamide]: the melting point fell in the range of 154 to 156 °C.

Compound `CCC(O)C(CC)Nc1cc(C)nc(Oc2c(C)cc(Cl)cc2C)c1CO` (stereo not drawn) [Example 139, 4-[2-(4-Chloro-2,6-dimethyl-phenoxy)-3-hydroxymethyl-6-methyl-pyridin-4-ylamino]-hexan-3-ol] came in with a melting point of 145 to 148 °C.

`CCC(CC)Oc1nc(C)nc(Nc2c(C)cc(C)cc2C)c1C(N)=O` [Example 233, 4-(1-Ethyl-propoxy)-2-methyl-6-(2,4,6-trimethyl-phenylamino)-pyrimidine-5-carboxylic acid amide] displayed a melting point of 174 to 176 °C.

In turn, `CCC(CC)Oc1cc(C)nc(Oc2c(C)cc(C)cc2C)c1[N+](=O)[O-]` [Example 173, 4-(1-Ethyl-propoxy)-6-methyl-3-nitro-2-(2,4,6-trimethyl-phenoxy)-pyridine] displayed a melting point of 106 to 109 °C.

Compound `CCC(CC)Nc1cc(C)nc(Oc2c(C)cc(Cl)cc2C)c1N` [Example 97, 2-(4-Chloro-2,6-dimethyl-phenoxy)-N4-(1-ethyl-propyl)-6-methyl-pyridine-3,4-diamine] returned a melting point of 72 to 74 °C.

The compound `CCC(CC)Oc1cc(C)nc2c1n(C)c(=O)n2-c1c(C)cc(C)cc1C` [Example 280, 7-(1-Ethyl-propoxy)-1,5-dimethyl-3-(2,4,6-trimethyl-phenyl)-1,3-dihydro-imidazo[4,5-b]pyridin-2-one] had a melting point of 151 to 153 °C.

`CCC(CC)Nc1cc(C)nc(Nc2c(C)cc(C)cc2C)c1C(N)=O` [Example 232, 4-(1-Ethyl-propylamino)-6-methyl-2-(2,4,6-trimethyl-phenylamino)-nicotinamide] came in with a melting point of 204 to 206 °C.

On to `CCC(COC)Nc1cc(C)nc(Oc2c(C=O)cccc2OC)c1[N+](=O)[O-]` (stereo not drawn) [Example 114, 3-Methoxy-2-[4-(1-methoxymethyl-propylamino)-6-methyl-3-nitro-pyridin-2-yloxy]-benzaldehyde], for which the melting point lay in the range of 126.5 to 130.5 °C.

`CCC(CC)Nc1cc(C)nc2c1nc(C)n2-c1c(C)cc(C)cc1C` [Example 282, [2,5-Dimethyl-3-(2,4,6-trimethyl-phenyl)-3H-imidazo[4,5-b]pyridin-7-yl]-(1-ethyl-propyl)-amine] yielded a melting point of 101 to 103 °C.

Turning to `CCC(CC)Oc1cc(C)nc(Nc2c(C)cc(C)cc2C)c1CN(C)C.Cl`, the melting point lay within 85 to 88 °C.

`CCC(CC)Nc1cc(C)nc(Sc2c(C)cc(C)cc2C)c1C` [Example 69, [3,6-Dimethyl-2-(2,4,6-trimethyl-phenylsulfanyl)-pyridin-4-yl]-(1-ethyl-propyl)-amine] yielded a melting point of 108 to 110 °C.

For `CCC(CC)Oc1cc(C)nc(Nc2c(C)cc(C)cc2C)c1NC(=O)CCl` [Example 237, 2-Chloro-N-[4-(1-ethyl-propoxy)-6-methyl-2-(2,4,6-trimethyl-phenylamino)-pyridin-3-yl]-acetamide], the melting point lay within 79 to 82 °C.

`CCCN(CC)c1cc(C)nc(Oc2c(C)cc(C)cc2C)c1C` (as salt: HCl) [Example 72, [3,6-Dimethyl-2-(2,4,6-trimethyl-phenoxy)-pyridin-4-yl]-ethyl-propyl-amine] had a melting point of 167 to 169 °C.

`CCNc1cc(C)nc(Sc2c(C)cc(C)cc2C)c1C` [Example 71, [3,6-dimethyl-2-(2,4,6-trimethyl-phenylsulfanyl)-pyridin-4-yl]-ethyl-amine] had a melting point of 114 to 116 °C.

Turning to `CCC(CC)Oc1cc(C)nc(Nc2c(C)cc(C)cc2C)c1C(=O)n1ccnc1` [Example 183, [4-(1-Ethyl-propoxy)-6-methyl-2-(2,4,6-trimethyl-phenylamino)-pyridin-3-yl]-imidazol-1-yl-methanone], the melting point lay within 120 to 122 °C.

For `CCC(CC)Oc1nc(C)nc(Nc2c(C)cc(C)cc2C)c1C(=O)O` [Example 273, 4-(1-Ethyl-propoxy)-2-methyl-6-(2,4,6-trimethyl-phenylamino)-pyrimidine-5-carboxylic acid], the melting point was 118 to 120 °C.

The compound `CCCN(CC)c1cc(C)nc(Oc2c(C)cc(Cl)cc2C)c1C` (as salt: HCl) [Example 77, [2-(4-chloro-2,6-dimethyl-phenoxy)-3,6-dimethyl-pyridin-4-yl]-ethyl-propyl-amine] showed a melting point of 74 to 76 °C.

On to `CCC(CC)Oc1nc(C)nc(Oc2c(C)cc(C)cc2C)c1C#N` [Example 35, 4-(1-Ethyl-propoxy)-2-methyl-6-(2,4,6-trimethyl-phenoxy)-pyrimidine-5-carbonitrile], for which the melting point is 128 to 130 °C.

`CCN(CC)c1cc(C)nc(Oc2c(C)cc(Cl)cc2C)c1C` (as salt: HCl) [Example 78, [2-(4-chloro-2,6-dimethyl-phenoxy)-3,6-dimethyl-pyridin-4-yl]-diethyl-amine] registered a melting point of 184 to 185 °C.

`CCC(CC)Oc1cc(C)nc(Nc2c(C)cc(C)cc2C)c1CNC(=O)CCl` [Example 188, 2-Chloro-N-[4-(1-ethyl-propoxy)-6-methyl-2-(2,4,6-trimethyl-phenylamino)-pyridin-3-ylmethyl]-acetamide] showed a melting point of 142 to 144 °C.

Consider `CCN(CC)c1cc(C)nc(Oc2c(C)cc(C)cc2C)c1C` (as salt: HCl) [Example 73, [3,6-dimethyl-2-(2,4,6-trimethyl-phenoxy)-pyridin-4-yl]-diethyl-amine], for which the melting point fell in the range of 180 to 181 °C.

In the case of `CCC(CC)Oc1nc(C)nc(Nc2c(C)cc(C)cc2C)c1CO` [Example 274, [4-(1-Ethyl-propoxy)-2-methyl-6-(2,4,6-trimethyl-phenylamino)-pyrimidin-5-yl]-methanol], the melting point fell in the range of 121 to 123 °C.

With `CCC(CC)Oc1cc(C)nc2c1[nH]c(=O)n2-c1c(C)cc(C)cc1C` [Example 279, 7-(1-Ethyl-propoxy)-5-methyl-3-(2,4,6-trimethyl-phenyl)-1,3-dihydro-imidazo[4,5-b]pyridin-2-one], the melting point fell in the range of 184 to 186 °C.

For the compound `C#CC(CC)Nc1cc(C)nc(Oc2c(C)cc(C)cc2C)c1C(=O)O` (stereo not drawn) [Example 140, 4-(1-Ethyl-prop-2-ynylamino)-6-methyl-2-(2,4,6-trimethyl-phenoxy)-nicotinic acid], the melting point lay within 131 to 133 °C.

The compound `CCCCN(CC)c1cc(C)nc(Oc2c(C)cc(Cl)cc2C)c1C` (as salt: HCl) [Example 76, Butyl-[2-(4-chloro-2,6-dimethyl-phenoxy)-3,6-dimethyl-pyridin-4-yl]-ethyl-amine] showed a melting point of 177 to 178 °C.

`Cc1cc(C)c(Oc2nc(C)cc(C(O)C(F)(F)F)c2C)c(C)c1` (stereo not drawn) [Example 212, 1-[3,6-Dimethyl-2-(2,4,6-trimethyl-phenoxy)-pyridin-4-yl]-2,2,2-trifluoro-ethanol] yielded a melting point of 134 to 139 °C.
